Test results reported in patent publication US20240018119A1, “CARBOXAMIDE DERIVATIVE AND PHARMACEUTICAL COMPOSITION COMPRISING SAME AS ACTIVE INGREDIENT FOR PREVENTING OR TREATING MENTAL ILLNESS” (DAEGU-GYEONGBUK MEDICAL INNOVATION FOUNDATION, priority 2020, published 2024).

What was measured:
Format in all cases: cell-based
serotonin transporter = molecular target: T1, serotonin transporter (Homo sapiens, UniProt P31645); assay: Serotonin reuptake inhibition in transporter-transfected HEK-293 cells ([3H]-5-HT); settings: for Triple reuptake inhibition (Ratio %) SERT: compound 1 μM, [3H]-5-HT, relative to control without compound (100%), lower = more inhibition; for IC50: concentration at which Ratio % is 50%, 6 concentrations 1 nM to 1 μM, read-out: Triple reuptake inhibition (IC50, μM) SERT
T1 construct: expressed in transfected cells; host or cells: HEK-293
Protocol: (§1) To evaluate the reuptake inhibitory effect on dopamine, the dopamine transporter cDNA was transfected using the HEK-293 cell line, and then sub-seeded in a 24 well plate the next day. After removing the medium, each compound of the Examples or Comparative Examples diluted to 1 μM in uptake buffer was added to a concentration of 200 μl/well and cultured at 37° C. for 15 minutes. 100 μl of uptake buffer containing 20-30 nM [3H]-DA was added and cultured at 37° C. for 5 minutes. The reaction solution was quickly removed and washed three times with 1 ml ice-cold uptake buffer. After dissolving the resultant in 1% SDS (0.5 ml), the degree of binding of radioisotope-labeled dopamine to the transporter was measured.
(§2) For norepinephrine (NE) and serotonin (5-HT), the degree of binding of radioisotope-labeled norepinephrine or serotonin to the transporter was measured in the same manner as above, except that cells transfected with NE or 5-HT transporter cDNA were used and [3H]-NE or [3H]-5-HT was used as a substrate.
(§3) In addition, when evaluating the reuptake inhibitory effect on dopamine, norepinephrine, and serotonin, the same method was performed without treating each compound of the Examples or Comparative Examples as a control, the degree of binding of radioisotope-labeled dopamine, norepinephrine, and serotonin to the transporter was measured, and by using this as a standard (100%), the triple reuptake inhibitory effect was evaluated as a relative ratio (Ratio %). That is, in the control group, the binding of dopamine, norepinephrine, and serotonin to transporters is not inhibited, but when each compound of the Examples is treated and thus the binding is inhibited, the Patio % value decreases.
In addition, in the case of the compound of Comparative Example 1, IC50 was obtained by the same method as the Example Compounds.

[1] = molecular target: T2, norepinephrine transporter (Homo sapiens, UniProt P23975); assay: Norepinephrine reuptake inhibition in transporter-transfected HEK-293 cells ([3H]-NE); settings: for Triple reuptake inhibition (Ratio %) NET: compound 1 μM, [3H]-NE, relative to control without compound (100%), lower = more inhibition; for IC50: concentration at which Ratio % is 50%, 6 concentrations 1 nM to 1 μM, read-out: Triple reuptake inhibition (IC50, μM) NET
T2 construct: expressed in transfected cells; host or cells: HEK-293
Protocol: as §1, §2, §3
(§4) Meanwhile, the Patio % values were compared, and in the case of the compounds of Examples 6, 9, 10, 19, 20, 22, 24, 28, 30, 31, 32, 33, 35, 41, 42, 48, 49, 51, 55, 56, 59, 61, 63, 64, 65, 66, 74 and 76 with excellent reuptake inhibitory effects on dopamine, norepinephrine and serotonin, the concentration at which the Ratio % is 50% was calculated using a total of 6 concentrations (1 nM, 5 nM, 10 nM, 50 nM, 100 nM, and 1 μM) and expressed as IC50. In addition, in the case of the compound of Comparative Example 1, IC50 was obtained by the same method as the Example Compounds.

dopamine transporter = molecular target: T3, dopamine transporter (Homo sapiens, UniProt Q01959); assay: Dopamine reuptake inhibition in transporter-transfected HEK-293 cells ([3H]-DA); settings: for Triple reuptake inhibition (Ratio %) DAT: compound 1 μM, 20-30 nM [3H]-DA, relative to control without compound (100%), lower = more inhibition; for IC50: concentration at which Ratio % is 50%, 6 concentrations 1 nM to 1 μM, read-out: Triple reuptake inhibition (IC50, μM) DAT
T3 construct: expressed in transfected cells; host or cells: HEK-293
Protocol: as §1, §3, §4

T2 sequence (P23975 whole entry, species assumed): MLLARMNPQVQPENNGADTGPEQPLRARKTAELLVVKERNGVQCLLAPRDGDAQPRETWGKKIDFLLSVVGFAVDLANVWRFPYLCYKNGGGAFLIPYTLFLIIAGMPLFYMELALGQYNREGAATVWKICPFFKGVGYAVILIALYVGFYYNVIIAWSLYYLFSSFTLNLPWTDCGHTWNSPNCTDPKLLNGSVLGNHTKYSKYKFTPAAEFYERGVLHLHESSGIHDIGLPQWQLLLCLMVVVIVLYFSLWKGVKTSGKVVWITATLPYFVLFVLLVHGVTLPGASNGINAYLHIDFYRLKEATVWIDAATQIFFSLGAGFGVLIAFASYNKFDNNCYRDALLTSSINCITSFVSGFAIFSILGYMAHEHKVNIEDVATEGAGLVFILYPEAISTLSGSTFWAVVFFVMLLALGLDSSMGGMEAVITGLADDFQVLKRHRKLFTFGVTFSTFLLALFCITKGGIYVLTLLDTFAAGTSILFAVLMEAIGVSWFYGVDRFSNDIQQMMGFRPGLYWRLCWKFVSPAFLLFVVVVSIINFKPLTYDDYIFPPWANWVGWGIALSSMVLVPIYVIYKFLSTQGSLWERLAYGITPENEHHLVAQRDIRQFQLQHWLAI
T3 sequence (Q01959 whole entry): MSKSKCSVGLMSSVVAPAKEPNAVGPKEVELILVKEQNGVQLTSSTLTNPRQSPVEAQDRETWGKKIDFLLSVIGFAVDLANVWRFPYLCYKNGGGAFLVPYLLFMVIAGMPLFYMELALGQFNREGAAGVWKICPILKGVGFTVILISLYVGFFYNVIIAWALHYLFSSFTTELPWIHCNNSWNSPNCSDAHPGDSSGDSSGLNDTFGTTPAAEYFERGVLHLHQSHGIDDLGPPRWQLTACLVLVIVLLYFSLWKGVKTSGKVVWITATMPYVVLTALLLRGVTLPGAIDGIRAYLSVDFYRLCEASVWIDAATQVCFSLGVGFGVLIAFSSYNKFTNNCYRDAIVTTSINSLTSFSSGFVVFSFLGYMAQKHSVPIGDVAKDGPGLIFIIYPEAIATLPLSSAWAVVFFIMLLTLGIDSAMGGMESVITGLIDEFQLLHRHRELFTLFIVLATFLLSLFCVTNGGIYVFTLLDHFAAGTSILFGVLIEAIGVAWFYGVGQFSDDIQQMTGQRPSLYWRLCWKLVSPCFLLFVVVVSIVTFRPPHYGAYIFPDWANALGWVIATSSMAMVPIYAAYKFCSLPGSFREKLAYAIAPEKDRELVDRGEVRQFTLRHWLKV
T1 sequence (P31645 whole entry): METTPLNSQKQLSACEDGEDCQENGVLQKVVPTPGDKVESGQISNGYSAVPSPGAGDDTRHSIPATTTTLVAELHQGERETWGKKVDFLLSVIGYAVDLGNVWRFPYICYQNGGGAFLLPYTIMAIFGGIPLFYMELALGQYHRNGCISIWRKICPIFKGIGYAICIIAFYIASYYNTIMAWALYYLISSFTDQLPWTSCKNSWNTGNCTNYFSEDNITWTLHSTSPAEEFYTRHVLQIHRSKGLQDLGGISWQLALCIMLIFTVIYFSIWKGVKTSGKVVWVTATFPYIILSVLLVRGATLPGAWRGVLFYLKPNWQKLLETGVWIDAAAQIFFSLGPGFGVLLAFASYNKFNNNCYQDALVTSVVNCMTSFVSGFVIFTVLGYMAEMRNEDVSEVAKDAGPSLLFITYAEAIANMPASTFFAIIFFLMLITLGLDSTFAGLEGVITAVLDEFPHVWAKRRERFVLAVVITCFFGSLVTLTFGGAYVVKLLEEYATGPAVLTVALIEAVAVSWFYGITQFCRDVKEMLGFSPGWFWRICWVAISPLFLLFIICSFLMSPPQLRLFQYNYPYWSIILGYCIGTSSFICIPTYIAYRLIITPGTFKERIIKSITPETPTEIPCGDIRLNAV

Triple reuptake inhibition (Ratio %) SERT (serotonin transporter) [%]	Triple reuptake inhibition (Ratio %) NET [1] [%]	Triple reuptake inhibition (Ratio %) DAT (dopamine transporter) [%]	IC50 (dopamine transporter) [µM]	IC50 (serotonin transporter) [µM]	IC50 [1] [µM]	SMILES
41.20	37.73	47.70	–	–	–	NC(=O)c1ccc2[nH]c(C(=O)NCCN3CCC(Cc4ccccc4)CC3)cc2c1 [Example 82, N2-(2-(4-benzylpiperidin-1-yl)ethyl)-1H-indol-2,5-dicarboxamide]
76.79	81.84	37.06	1.48	–	–	O=C(NCCN1CCC(Cc2ccccc2)CC1)c1cc2cccnc2[nH]1 [Example 56, N-(2-(4-benzylpiperidin-1-yl)ethyl)-1H-pyrrolol[2,3-b]pyridin-2-carboxamide]
42.91	110.55	77.49	–	–	–	O=C(NCCN1CCC(Cc2ccccc2)CC1)c1cc2cc(OCc3ccccc3)ccc2[nH]1 [Example 46, 5-(benzyloxy)-N-(2-(4-benzylpiperidin-1-yl)ethyl)-1H-indol-2-carboxamide]
58.09	72.60	31.52	1.73	–	4.35	O=C(NCCN1CCC(Cc2ccccc2)CC1)c1cc2cc(Cl)ccc2[nH]1 [Example 31, N-(2-(4-benzylpiperidin-1-yl)ethyl)-5-chloro-1H-indol-2-carboxamide]
48.50	31.85	12.3	0.171	0.525	0.371	N#Cc1ccc2[nH]c(C(=O)NCCN3CCC(Cc4ccccc4)CC3)cc2c1 [Example 41, N-(2-(4-benzylpiperidin-1-yl)ethyl)-5-cyano-1H-indol-2-carboxamide]
47.72	57.21	22.84	0.362	0.237	0.543	O=C(NCCN1CCC(Cc2ccccc2)CC1)c1nc2cc(O)ccc2[nH]1 [Example 64, N-(2-(4-benzylpiperidin-1-yl)ethyl)-5-hydroxy-1H-benzo[d]imidazol-2-carboxamide]

Further lines, the compound ahead of its results:

SMILES	Triple reuptake inhibition (Ratio %) SERT (serotonin transporter) [%]	Triple reuptake inhibition (Ratio %) NET [1] [%]	Triple reuptake inhibition (Ratio %) DAT (dopamine transporter) [%]	IC50 (dopamine transporter) [µM]	IC50 (serotonin transporter) [µM]	IC50 [1] [µM]
Cc1c(C(=O)NCCN2CCC(Cc3ccccc3)CC2)[nH]c2ccccc12 [Example 20, N-(2-(4-benzylpiperidin-1-yl)ethyl)-3-methyl-1H-indol-2-carboxamide]	83.11	85.70	43.53	1.37	–	–
O=C(NCCN1CCC(Cc2ccccc2)CC1)c1c[nH]c2ccccc12 [Example 73, N-(2-(4-benzylpiperidin-1-yl)ethyl)-1H-indol-3-carboxamide]	88.39	57.01	33.58	–	–	–
O=C(NCCN1CCC(Cc2ccc(Cl)c(Cl)c2)CC1)c1cc2ccccc2[nH]1 [Example 19, N-(2-(4-(3,4-dichlorobenzyl)piperidin-1-yl)ethyl)-1H-indol-2-carboxamide]	40.39	94.93	36.79	0.59	0.51	> 10
O=C(NCCN1CCN(c2ccc(Cl)c(Cl)c2)CC1)c1ccc(Cl)c(Cl)c1 [Example 14, 3,4-dichloro-N-(2-(4-(3,4-dichlorphenyl)piperazin-1-yl)ethyl)benzamide]	88.61	105.49	94.20	–	–	–
O=C(NCCN1CCN(Cc2ccc(Cl)c(Cl)c2)CC1)c1cc2ccccc2[nH]1 [Example 22, N-(2-(4-(3,4-dichlorobenzyl)piperazin-1-yl)ethyl)-1H-indol-2-carboxamide]	52.47	91.21	63.72	–	> 10	–
O=C(NCCN1CCC(Cc2ccccc2)CC1)C1Cc2ccccc2N1 (centres unmarked) [Example 57, N-(2-(4-benzylpiperidin-1-yl)ethyl) indolin-2-carboxamide]	77.95	124.77	60.52	–	–	–
O=C(NCCN1CCN(Cc2ccccc2)CC1)c1ccc(Cl)c(Cl)c1 [Example 15, N-(2-(4-benzylpiperazin-1-yl)ethyl)-3,4-dichlorobenzamide]	114.75	72.94	85.21	–	–	–
O=C(c1cc2ccccc2[nH]1)N1CCC(Cc2ccccc2)CC1 [Example 26, (4-benzylpiperidin-1-yl) (1H-indol-2-yl)methanone]	113.81	92.07	124.32	–	–	–
O=C(NCCN1CCC(c2c[nH]c3ccccc23)CC1)c1cc2ccccc2[nH]1 [Example 37, N-(2-(4-(1H-indol-3-yl)piperidin-1-yl)ethyl)-1H-indol-2-carboxamide]	32.42	76.15	38.64	–	–	–
CCCCOc1ccc2[nH]c(C(=O)NCCN3CCC(Cc4ccccc4)CC3)cc2c1 [Example 67, N-(2-(4-benzylpiperidin-1-yl)ethyl)-5-butoxy-1H-indol-2-carboxamide]	53.46	92.60	56.05	–	–	–
O=C(NCCN1CCN(c2cccc(Cl)c2Cl)CC1)c1ccc2cc(Br)ccc2c1 [Example 4, 6-bromo-N-(2-(4-(2,3-dichlorophenyl)piperazin-1-yl)ethyl)-2-naphthamide]	73.53	121.24	108.51	–	–	–
O=C(NCCN1CCC(Cc2ccccc2)CC1)c1nc2cc(F)ccc2s1 [Example 60, N-(2-(4-benzylpiperidin-1-yl)ethyl)-5-fluorobenzo(d)thiazol-2-carboxamide]	53.40	50.81	68.95	–	–	–
